Measured values as given in US12509424B2, “Compound and composition as PDGF receptor kinase inhibitor” (NIPPON SHINYAKU CO., LTD., priority 2019, dated 2025).
Like-named read-outs stand apart in the source and are kept apart here.

What was measured:
PDGFR-β = PDGFR-β (Homo sapiens (Human), UniProt P09619); assay: PDGFR-β tyrosine kinase inhibitory action (HTRF KinEASE-TK); format: biochemical; settings: PDGFR-β enzyme 1 ng/μL, 30° C. for 30 minutes; read-out: PDGF-β IC50
Outline: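 Recombinant PDGFR-β at 1 ng/μL final with TK substrate-3-biotin in a substrate solution containing 0.6 μM ATP; buffer 50 mM HEPES pH 7.0, 5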

[1] = tested on: pulmonary arterial smooth muscle cells; assay: Suppression of proliferation of pulmonary arterial smooth muscle cells (PDGF-BB stimulation, BrdU); format: cell-based; settings: PASMC, read-out: Human normal PASMC proliferation suppression (PDGF stimulation_IC50)
Outline: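 Healthy human pulmonary arterial smooth muscle cells, serum-starved a day in 0.1% FBS medium, were treated with compound at final 3 to 10,000 nM plus human PDGF-BB (final 10 ng/mL) and BrdU. After 1 day of culture, BrdU uptake was measured with an anti-BrdU antibody.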

[2] = molecular target: TEL-PDGFRβ fusion gene transfected cells (Ba/F3); assay: Suppression of proliferation of TEL-PDGFRβ fusion gene transfected Ba/F3 cells; format: cell-based, human; settings: TEL-PDGFRβ expressing Ba/F3 cells, 72 hours, final concentration 0.1 to 10,000 nM; read-out: PDGFR β/BaF3 proliferation inhibition (IC50)
Source text: 2. Preparation of Test Substance
4. Analysis of Measurement Results

[3] = molecular target: TEL-KIT fusion gene transfected cells (Ba/F3); assay: Suppression of proliferation of TEL-KIT fusion gene transfected Ba/F3 cells; settings: read-out: KIT/BaF3 proliferation inhibition (IC50); TEL-KIT expressing Ba/F3 cells, 72 hours, final concentration 0.1 to 10,000 nM;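 note: viable cells quantified via formazan from tetrazolium reduction, inhibition scaled with 0.1% DMSO control as 0% and medium-only blank as 100%, IC50 from two-parameter logistic fit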
[4] = human PDGF-BB 10 ng/mL, BrdU uptake, final concentration 3 to 10,000 nM
[5] = 24 h, healthy human derived pulmonary arterial smooth muscle cells, human PDGF-BB 10 ng/mL stimulation, BrdU uptake after 1 day, test substance final concentration 3 to 10,000 nM

TEL-KIT fusion gene transfected cells (Ba/F3), sequence (P10721 26-976 limits assumed, change not shown): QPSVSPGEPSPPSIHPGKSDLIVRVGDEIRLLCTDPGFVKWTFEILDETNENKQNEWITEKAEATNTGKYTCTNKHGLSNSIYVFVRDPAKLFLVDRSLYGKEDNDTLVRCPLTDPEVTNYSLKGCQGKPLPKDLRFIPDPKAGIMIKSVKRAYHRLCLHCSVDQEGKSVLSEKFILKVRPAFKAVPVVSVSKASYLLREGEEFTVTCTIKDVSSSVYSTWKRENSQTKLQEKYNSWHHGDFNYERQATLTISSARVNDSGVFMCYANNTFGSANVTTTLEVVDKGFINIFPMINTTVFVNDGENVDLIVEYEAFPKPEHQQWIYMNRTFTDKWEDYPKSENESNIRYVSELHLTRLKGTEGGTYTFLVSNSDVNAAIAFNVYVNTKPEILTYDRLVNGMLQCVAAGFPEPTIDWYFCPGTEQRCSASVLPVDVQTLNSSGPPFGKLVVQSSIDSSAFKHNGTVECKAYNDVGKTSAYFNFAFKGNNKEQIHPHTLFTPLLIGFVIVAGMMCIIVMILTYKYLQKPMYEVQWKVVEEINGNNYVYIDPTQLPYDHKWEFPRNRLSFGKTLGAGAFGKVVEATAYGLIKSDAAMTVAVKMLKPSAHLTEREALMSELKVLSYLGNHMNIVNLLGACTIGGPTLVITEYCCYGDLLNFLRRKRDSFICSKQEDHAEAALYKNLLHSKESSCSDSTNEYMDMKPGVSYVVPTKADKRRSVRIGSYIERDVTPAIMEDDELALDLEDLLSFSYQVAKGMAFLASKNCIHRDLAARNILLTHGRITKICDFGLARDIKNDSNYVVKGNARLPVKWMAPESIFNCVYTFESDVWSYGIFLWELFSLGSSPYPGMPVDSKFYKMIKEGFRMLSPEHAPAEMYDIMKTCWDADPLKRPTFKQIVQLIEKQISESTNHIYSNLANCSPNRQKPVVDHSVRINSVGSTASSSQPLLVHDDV
TEL-PDGFRβ fusion gene transfected cells (Ba/F3), sequence (P09619 33-1106 limits assumed, change not shown): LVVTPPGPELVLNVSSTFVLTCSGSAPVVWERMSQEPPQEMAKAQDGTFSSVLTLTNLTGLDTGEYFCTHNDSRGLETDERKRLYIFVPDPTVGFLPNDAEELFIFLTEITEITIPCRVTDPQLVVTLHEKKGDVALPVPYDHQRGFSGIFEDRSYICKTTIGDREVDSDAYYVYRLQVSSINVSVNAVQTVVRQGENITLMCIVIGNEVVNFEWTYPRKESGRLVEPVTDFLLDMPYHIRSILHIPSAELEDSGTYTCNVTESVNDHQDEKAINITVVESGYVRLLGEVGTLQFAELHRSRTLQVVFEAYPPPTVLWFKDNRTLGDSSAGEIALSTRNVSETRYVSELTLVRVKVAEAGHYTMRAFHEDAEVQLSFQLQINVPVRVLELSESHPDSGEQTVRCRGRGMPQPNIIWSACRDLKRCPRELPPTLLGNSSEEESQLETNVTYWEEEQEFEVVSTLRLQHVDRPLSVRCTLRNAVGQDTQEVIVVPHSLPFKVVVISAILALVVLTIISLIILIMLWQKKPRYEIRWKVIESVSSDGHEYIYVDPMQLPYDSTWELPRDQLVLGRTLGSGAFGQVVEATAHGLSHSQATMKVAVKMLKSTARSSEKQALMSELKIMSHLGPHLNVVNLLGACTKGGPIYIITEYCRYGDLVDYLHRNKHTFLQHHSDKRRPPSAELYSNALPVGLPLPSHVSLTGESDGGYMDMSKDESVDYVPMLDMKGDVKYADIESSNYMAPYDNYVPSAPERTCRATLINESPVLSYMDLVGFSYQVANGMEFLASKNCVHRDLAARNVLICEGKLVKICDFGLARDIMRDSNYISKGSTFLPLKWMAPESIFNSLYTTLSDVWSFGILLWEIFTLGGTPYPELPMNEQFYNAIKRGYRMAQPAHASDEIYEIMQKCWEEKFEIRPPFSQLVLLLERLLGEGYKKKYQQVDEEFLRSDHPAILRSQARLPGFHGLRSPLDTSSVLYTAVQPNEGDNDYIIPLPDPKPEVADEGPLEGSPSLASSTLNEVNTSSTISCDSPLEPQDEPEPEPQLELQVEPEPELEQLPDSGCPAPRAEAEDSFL
PDGFR-β, sequence (P09619 33-1106): as the sequence (P09619 33-1106 limits assumed, change not shown) above

| SMILES | IC50 (PDGFR-β) | IC50 [2] | IC50 [3] | IC50 [1, 4] | IC50 [1, 5] |
| --- | --- | --- | --- | --- | --- |
| Cc1ccc(C(=O)N[C@H]2CCCC[C@@H]2O)cc1NC(=O)c1cncc(NCC2CC2)c1 [Example 16, 5-[(cyclopropylmethyl)amino]-N-(5-{[(1S,2S)-2-hydroxycyclohexyl]carbamoyl}-2-methylphenyl)pyridine-3-carboxamide] | 22 nM | 130 nM | 1300 nM | 81 nM |  |
| Cc1ccc(C(=O)N[C@H]2CCCC[C@@H]2O)cc1NC(=O)c1cncc(N(C)C2CC2)c1 [Example 17, 5-[cyclopropyl(methyl)amino]-N-(5-{[(1S,2S)-2-hydroxycyclohexyl]carbamoyl}-2-methylphenyl)pyridine-3-carboxamide] | 42 nM | 10 nM | 800 nM | 130 nM |  |
| COc1ccc(-c2cncc(C(=O)Nc3cc(C(=O)N[C@H]4CCCC[C@@H]4O)ccc3C)c2)cc1 [Example 18, N-(5-{[(1S,2S)-2-hydroxycyclohexyl]carbamoyl}-2-methylphenyl)-5-(4-methoxyphenyl)pyridine-3-carboxamide] | 39 nM | 20 nM | 530 nM | 47 nM |  |
| Cc1ccc(C(=O)N[C@H]2CCCC[C@@H]2O)cc1NC(=O)c1cncc(-c2ccc(F)cc2)c1 [Example 19, 5-(4-fluorophenyl)-N-(5-{[(1S,2S)-2-hydroxycyclohexyl]carbamoyl}-2-methylphenyl)pyridine-3-carboxamide] | 13 nM | 30 nM | 1000 nM | 81 nM |  |
| Cc1ccc(C(=O)N[C@H]2CCCC[C@@H]2O)cc1NC(=O)c1cncc(-c2cccc(F)c2)c1 [Example 20, 5-(3-fluorophenyl)-N-(5-{[(1S,2S)-2-hydroxycyclohexyl]carbamoyl}-2-methylphenyl)pyridine-3-carboxamide] | 13 nM | 24 nM | 900 nM | 77 nM |  |
| Cc1ccc(C(=O)N[C@H]2CCCC[C@@H]2O)cc1NC(=O)c1cncc(-c2ccc(C(F)(F)F)cc2)c1 [Example 21, N-(5-{[(1S,2S)-2-hydroxycyclohexyl]carbamoyl}-2-methylphenyl)-5-[4-(trifluoromethyl)phenyl]pyridine-3-carboxamide] | 73 nM | 60 nM | 2000 nM | 140 nM |  |
| Cc1ccc(C(=O)N[C@H]2CCCC[C@@H]2O)cc1NC(=O)c1cncc(-c2cccc(C(F)(F)F)c2)c1 [Example 22, N-(5-{[(1S,2S)-2-hydroxycyclohexyl]carbamoyl}-2-methylphenyl)-5-[3-(trifluoromethyl)phenyl]pyridine-3-carboxamide] | 14 nM | 59 nM | 900 nM | 100 nM |  |
| CC(C)=Cc1cncc(C(=O)Nc2cc(C(=O)N[C@H]3CCCC[C@@H]3O)ccc2C)c1 [Example 23, N-(5-{[(1S,2S)-2-hydroxycyclohexyl]carbamoyl}-2-methylphenyl)-5-(2-methylprop-1-en-1-yl)pyridine-3-carboxamide] | 26 nM | 4.9 nM | 620 nM | 64 nM |  |
| Cc1ccc(C(=O)N[C@H]2CCCC[C@@H]2O)cc1NC(=O)c1cncc(OCC2CC2)c1 [Example 24, 5-(cyclopropylmethoxy)-N-(5-{[(1S,2S)-2-hydroxycyclohexyl]carbamoyl}-2-methylphenyl)pyridine-3-carboxamide] | 64 nM | 11 nM | 1200 nM | 110 nM |  |
| Cc1ccc(C(=O)N[C@H]2CCCC[C@@H]2O)cc1NC(=O)c1cnc(NC2CC(F)(F)C2)s1 [Example 25, 2-[(3,3-difluorocyclobutyl)amino]-N-(5-{[(1S,2S)-2-hydroxycyclohexyl]carbamoyl}-2-methylphenyl)-1,3-thiazole-5-carboxamide] | 39 nM | 50 nM | > 10000 nM | 230 nM |  |
| Cc1ccc(C(=O)N[C@H]2CCCC[C@@H]2O)cc1NC(=O)c1cnc(NCCC2CC2)s1 [Example 26, 2-[(2-cyclopropylethyl)amino]-N-(5-{[(1S,2S)-2-hydroxycyclohexyl]carbamoyl}-2-methylphenyl)-1,3-thiazole-5-carboxamide] | 4.6 nM | 9.3 nM | 460 nM | 25 nM |  |
| Cc1ccc(C(=O)N[C@H]2CCCC[C@@H]2O)cc1NC(=O)c1cncc(OC2CCC(F)(F)CC2)c1 [Example 28, 5-[(4,4-difluorocyclohexyl)oxy]-N-(5-{[(1S,2S)-2-hydroxycyclohexyl]carbamoyl}-2-methylphenyl)pyridine-3-carboxamide] | 170 nM | 50 nM | 5800 nM | 280 nM |  |
| Cc1ccc(C(=O)N[C@H]2CCCC[C@@H]2O)cc1NC(=O)c1cncc(-c2cc(F)cc(F)c2)c1 [Example 32, 5-(3,5-difluorophenyl)-N-(5-{[(1S,2S)-2-hydroxycyclohexyl]carbamoyl}-2-methylphenyl)pyridine-3-carboxamide] | 47 nM | 17 nM | 920 nM |  | 190 nM |
| Cc1ccc(C(=O)N[C@H]2CCCC[C@@H]2O)cc1NC(=O)c1cncc(-c2cccc(OC(F)(F)F)c2)c1 [Example 34, N-(5-{[(1S,2S)-2-hydroxycyclohexyl]carbamoyl}-2-methylphenyl)-5-[3-(trifluoromethoxy)phenyl]pyridine-3-carboxamide] | 19 nM | 8 nM | 540 nM |  | 130 nM |
| Cc1ccc(C(=O)N[C@H]2CCCC[C@@H]2O)cc1NC(=O)c1cncc(-c2c(F)cccc2F)c1 [Example 37, 5-(2,6-difluorophenyl)-N-(5-{[(1S,2S)-2-hydroxycyclohexyl]carbamoyl}-2-methylphenyl)pyridine-3-carboxamide] | 33 nM | 5.1 nM | 470 nM |  | 46 nM |

More lines, in order of falling IC50 (PDGFR-β), values ahead:

| IC50 (PDGFR-β) | IC50 [2] | IC50 [3] | SMILES | IC50 [1, 4] | IC50 [1, 5] |
| --- | --- | --- | --- | --- | --- |
| 160 nM | 17 nM | 2200 nM | Cc1ccc(C(=O)N[C@H]2CCCC[C@@H]2O)cc1NC(=O)c1cncc(-c2ccccc2OC(F)(F)F)c1 [Example 35, N-(5-{[(1S,2S)-2-hydroxycyclohexyl]carbamoyl}-2-methylphenyl)-5-[2-(trifluoromethoxy)phenyl]pyridine-3-carboxamide] |  | 320 nM |
| 130 nM | 25 nM | 3500 nM | Cc1ccc(C(=O)N[C@H]2CCCC[C@@H]2O)cc1NC(=O)c1cncc(-c2ccc(C(F)(F)F)cc2F)c1 [Example 36, 5-[2-fluoro-4-(trifluoromethyl)phenyl]-N-(5-{[(1S,2S)-2-hydroxycyclohexyl]carbamoyl}-2-methylphenyl)pyridine-3-carboxamide] |  | 92 nM |
| 73 nM | 8 nM | 1000 nM | Cc1ccc(C(=O)N[C@H]2CCCC[C@@H]2O)cc1NC(=O)c1cncc(-c2ccc(F)cc2F)c1 [Example 31, 5-(2,4-difluorophenyl)-N-(5-{[(1S,2S)-2-hydroxycyclohexyl]carbamoyl}-2-methylphenyl)pyridine-3-carboxamide] |  | 100 nM |
| 44 nM | 22 nM | 1300 nM | Cc1ccc(C(=O)N[C@H]2CCCC[C@@H]2O)cc1NC(=O)c1cncc(-c2cccc(F)c2F)c1 [Example 30, 5-(2,3-difluorophenyl)-N-(5-{[(1S,2S)-2-hydroxycyclohexyl]carbamoyl}-2-methylphenyl)pyridine-3-carboxamide] |  | 52 nM |
| 35 nM | 7.5 nM | 290 nM | Cc1ccc(C(=O)N[C@H]2CCCC[C@@H]2O)cc1NC(=O)c1cncc(-c2ccccc2F)c1 [Example 29, 5-(2-fluorophenyl)-N-(5-{[(1S,2S)-2-hydroxycyclohexyl]carbamoyl}-2-methylphenyl)pyridine-3-carboxamide] |  | 130 nM |
| 19 nM | 80 nM | 880 nM | COc1ccc(-c2cncc(C(=O)Nc3cc(C(=O)N[C@H]4CCCC[C@@H]4O)ccc3C)c2)c(F)c1 [Example 33, 5-(2-fluoro-4-methoxyphenyl)-N-(5-{[(1S,2S)-2-hydroxycyclohexyl]carbamoyl}-2-methylphenyl)pyridine-3-carboxamide] |  | 67 nM |
| 11 nM | 3.9 nM | 330 nM | Cc1ccc(C(=O)N[C@H]2CCCC[C@@H]2O)cc1NC(=O)c1cncc(/C=C/C2CC2)c1 [Example 15, 5-[(E)-2-cyclopropylethenyl]-N-(5-{[(1S,2S)-2-hydroxycyclohexyl]carbamoyl}-2-methylphenyl)pyridine-3-carboxamide] | 18 nM |  |
| 8.3 nM | 8.7 nM | 1000 nM | Cc1ccc(C(=O)N[C@H]2CCCC[C@@H]2O)cc1NC(=O)c1cnc(NC(C)C)s1 [Example 27, N-(5-{[(1S,2S)-2-hydroxycyclohexyl]carbamoyl}-2-methylphenyl)-2-[(propan-2-yl)amino]-1,3-thiazole-5-carboxamide] | 70 nM |  |
